According to ChEMBL document CHEMBL1201862, “PubChem BioAssay data set” (2004):
Activity calls are given as the source filed them.

How the values were obtained:
Genome polyprotein = Genome polyprotein (dengue virus type 2, UniProt P29990); assay: Dengue-2 NS5 methyltransferase inhibitors, primary screen, biochemical, confirmation dose response (AID 588689); format: functional
[1] = biological target: G-protein coupled receptor 55 (Homo sapiens, UniProt Q9Y2T6); assay: GPR55 antagonists blocking LPI-driven arrestin recruitment, primary screen, imaging, U2OS, beta-arrestin-GFP, LPI agonist (AID 2013); format: functional;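 also: antagonist potency measured as reduced agonist-driven arrestin aggregation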
[2] = biological target: T1, RNA-binding protein pos-1 (Caenorhabditis elegans, UniProt G5EF15); assay: inhibitors of POS-1/mex-3 RNA binding, dose response, biochemical, fluorescence polarization (AID 1964);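 also: purified POS-1 fused to maltose binding protein made in E. coli; potency of compounds blocking POS-1 binding to fluorescent RNA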
T1 sequence (G5EF15 whole entry): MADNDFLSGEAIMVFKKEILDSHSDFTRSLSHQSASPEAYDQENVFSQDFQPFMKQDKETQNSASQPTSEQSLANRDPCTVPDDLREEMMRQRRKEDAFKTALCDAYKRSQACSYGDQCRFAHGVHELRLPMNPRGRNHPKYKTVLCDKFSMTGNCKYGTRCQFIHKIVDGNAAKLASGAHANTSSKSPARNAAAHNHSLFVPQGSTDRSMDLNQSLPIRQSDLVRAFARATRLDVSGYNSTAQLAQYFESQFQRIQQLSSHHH

[3] = biological target: T2, Zinc finger protein mex-5 (Caenorhabditis elegans, UniProt Q9XUB2); assay: MEX-5/TCR-2 RNA interaction inhibitors, dose response, biochemical, C. elegans, fluorescence polarization (AID 1960)
T2 sequence (Q9XUB2 whole entry): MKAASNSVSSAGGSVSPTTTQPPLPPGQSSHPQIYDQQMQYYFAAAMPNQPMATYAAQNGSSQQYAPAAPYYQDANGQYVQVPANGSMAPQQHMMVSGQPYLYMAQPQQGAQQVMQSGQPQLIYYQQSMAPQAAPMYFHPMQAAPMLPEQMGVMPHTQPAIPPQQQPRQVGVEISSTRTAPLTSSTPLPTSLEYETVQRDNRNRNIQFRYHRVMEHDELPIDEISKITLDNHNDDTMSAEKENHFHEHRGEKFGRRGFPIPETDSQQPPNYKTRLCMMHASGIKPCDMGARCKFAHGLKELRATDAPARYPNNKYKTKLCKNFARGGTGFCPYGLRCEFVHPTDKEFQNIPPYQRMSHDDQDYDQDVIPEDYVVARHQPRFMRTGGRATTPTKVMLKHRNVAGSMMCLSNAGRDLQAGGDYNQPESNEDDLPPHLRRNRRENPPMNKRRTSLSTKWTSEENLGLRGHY

[4] = biological target: DNA dC->dU-editing enzyme APOBEC-3G (Homo sapiens, UniProt Q9HC16); assay: Dose Response confirmation of small molecule APOBEC3G DNA Deaminase Inhibitors via a fluorescence-based single-stranded DNA deaminase assay. [Related pubchem assays (depositor defined):AID493012, AID493028]; format: functional
[5] = biological target: T3, Probable nicotinate-nucleotide adenylyltransferase (Staphylococcus aureus (strain N315), UniProt P65502); format: functional, Staphylococcus aureus subsp. aureus N315;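 as to IC50 Mean: confirmatory dose-response retesting of NadD inhibitor hits first found in an ultra-high-throughput screen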
[6] = biological target: T4, Carboxy-terminal domain RNA polymerase II polypeptide A small phosphatase 1 (Homo sapiens, UniProt Q9GZU7); assay: inhibitors of CTDSP1, concentration-response testing, biochemical assay, absorbance-based, actives from ultra-high-throughput screening (AID 540297); format: functional
T4 sequence (Q9GZU7 whole entry): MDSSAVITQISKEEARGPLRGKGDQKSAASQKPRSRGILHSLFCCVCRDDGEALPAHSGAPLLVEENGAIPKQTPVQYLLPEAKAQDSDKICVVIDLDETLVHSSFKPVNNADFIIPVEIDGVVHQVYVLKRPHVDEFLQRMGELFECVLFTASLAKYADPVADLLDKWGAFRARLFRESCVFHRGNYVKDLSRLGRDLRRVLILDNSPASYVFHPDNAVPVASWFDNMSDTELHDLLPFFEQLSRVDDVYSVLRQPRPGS

[7] = biological target: DNA dC->dU-editing enzyme APOBEC-3A (Homo sapiens, UniProt P31941); assay: APOBEC3A DNA deaminase inhibitors, dose response, biochemical (AID 504722); format: functional
[8] = biological target: T3, Probable nicotinate-nucleotide adenylyltransferase; format: functional, Staphylococcus aureus subsp. aureus N315; conditions: read-out: IC50_Mean
Fatty acid synthase [9] = biological target: T5, Fatty acid synthase (Homo sapiens, UniProt P49327); assay: FAS thioesterase domain inhibitors, dose response, biochemical, endpoint fluorescence intensity, uHTS hits (AID 624327); format: functional;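 also: fluorescence from hydrolysis of an O-methyl fluorescein acyl ester substrate by the enzyme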
Fatty acid synthase [10] = biological target: T5, Fatty acid synthase; assay: FAS thioesterase domain inhibitors, dose response, biochemical, kinetic fluorescence intensity (AID 624326); format: functional;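 also: rate of fluorescence rise from hydrolysis of a fluorogenic O-methyl fluorescein ester substrate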
Leucine aminopeptidase = biological target: T6, Leucine aminopeptidase (Plasmodium falciparum 3D7, UniProt Q8IL11); assay: P. falciparum M17LAP inhibitors, primary screen, biochemical, fluorogenic H-Leu-NHMec substrate, 1536-well (AID 1619); format: functional
T6 sequence (Q8IL11 whole entry): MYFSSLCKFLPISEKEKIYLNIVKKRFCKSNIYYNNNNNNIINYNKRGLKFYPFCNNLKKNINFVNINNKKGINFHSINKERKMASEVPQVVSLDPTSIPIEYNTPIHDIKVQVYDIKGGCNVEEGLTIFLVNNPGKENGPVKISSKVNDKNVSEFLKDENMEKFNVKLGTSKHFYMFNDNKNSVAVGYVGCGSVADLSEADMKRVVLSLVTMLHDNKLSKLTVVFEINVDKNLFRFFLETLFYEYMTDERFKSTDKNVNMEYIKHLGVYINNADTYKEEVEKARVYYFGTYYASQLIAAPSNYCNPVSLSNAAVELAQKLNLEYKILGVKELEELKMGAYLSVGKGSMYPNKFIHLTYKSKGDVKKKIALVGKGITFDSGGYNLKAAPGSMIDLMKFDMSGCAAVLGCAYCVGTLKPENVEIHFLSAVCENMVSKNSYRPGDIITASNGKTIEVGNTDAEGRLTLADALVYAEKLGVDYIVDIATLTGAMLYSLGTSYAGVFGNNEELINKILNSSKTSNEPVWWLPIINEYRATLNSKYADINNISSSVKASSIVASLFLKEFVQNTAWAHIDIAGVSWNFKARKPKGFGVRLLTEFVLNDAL

[11] = biological target: Induced myeloid leukemia cell differentiation protein Mcl-1 (Homo sapiens, UniProt Q07820); format: functional
Caspase-6 = biological target: T7, Caspase-6 (Homo sapiens, UniProt P55212); assay: human caspase-6 inhibitors, dose response, biochemical, VEID-R110 fluorescence, cherry-pick (AID 720632)
T7 sequence (P55212 whole entry): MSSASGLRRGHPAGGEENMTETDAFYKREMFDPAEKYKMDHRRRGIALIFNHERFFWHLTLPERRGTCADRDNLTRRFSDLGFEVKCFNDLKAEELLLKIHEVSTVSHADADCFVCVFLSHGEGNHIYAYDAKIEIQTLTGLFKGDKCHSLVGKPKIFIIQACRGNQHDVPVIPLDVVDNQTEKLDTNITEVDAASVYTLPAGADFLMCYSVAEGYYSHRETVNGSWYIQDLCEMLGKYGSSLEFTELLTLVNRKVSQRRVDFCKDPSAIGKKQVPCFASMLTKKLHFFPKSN

Sequence of G-protein coupled receptor 55 (Q9Y2T6 whole entry, the tested form may be a part): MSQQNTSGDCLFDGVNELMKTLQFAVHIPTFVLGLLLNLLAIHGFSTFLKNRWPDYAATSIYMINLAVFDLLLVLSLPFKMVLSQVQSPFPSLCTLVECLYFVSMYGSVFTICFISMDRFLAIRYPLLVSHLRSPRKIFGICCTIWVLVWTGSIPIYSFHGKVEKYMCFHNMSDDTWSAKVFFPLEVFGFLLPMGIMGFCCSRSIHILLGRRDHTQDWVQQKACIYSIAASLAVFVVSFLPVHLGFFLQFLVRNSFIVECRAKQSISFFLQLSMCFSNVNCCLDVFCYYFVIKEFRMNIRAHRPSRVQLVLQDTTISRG
T3 sequence (P65502 whole entry, the tested form may be a part): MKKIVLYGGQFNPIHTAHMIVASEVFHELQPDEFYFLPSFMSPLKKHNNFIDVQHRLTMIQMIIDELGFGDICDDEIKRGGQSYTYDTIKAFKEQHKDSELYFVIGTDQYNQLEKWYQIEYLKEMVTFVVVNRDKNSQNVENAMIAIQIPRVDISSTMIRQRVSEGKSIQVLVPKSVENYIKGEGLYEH
T5 sequence (P49327 whole entry, the tested form may be a part): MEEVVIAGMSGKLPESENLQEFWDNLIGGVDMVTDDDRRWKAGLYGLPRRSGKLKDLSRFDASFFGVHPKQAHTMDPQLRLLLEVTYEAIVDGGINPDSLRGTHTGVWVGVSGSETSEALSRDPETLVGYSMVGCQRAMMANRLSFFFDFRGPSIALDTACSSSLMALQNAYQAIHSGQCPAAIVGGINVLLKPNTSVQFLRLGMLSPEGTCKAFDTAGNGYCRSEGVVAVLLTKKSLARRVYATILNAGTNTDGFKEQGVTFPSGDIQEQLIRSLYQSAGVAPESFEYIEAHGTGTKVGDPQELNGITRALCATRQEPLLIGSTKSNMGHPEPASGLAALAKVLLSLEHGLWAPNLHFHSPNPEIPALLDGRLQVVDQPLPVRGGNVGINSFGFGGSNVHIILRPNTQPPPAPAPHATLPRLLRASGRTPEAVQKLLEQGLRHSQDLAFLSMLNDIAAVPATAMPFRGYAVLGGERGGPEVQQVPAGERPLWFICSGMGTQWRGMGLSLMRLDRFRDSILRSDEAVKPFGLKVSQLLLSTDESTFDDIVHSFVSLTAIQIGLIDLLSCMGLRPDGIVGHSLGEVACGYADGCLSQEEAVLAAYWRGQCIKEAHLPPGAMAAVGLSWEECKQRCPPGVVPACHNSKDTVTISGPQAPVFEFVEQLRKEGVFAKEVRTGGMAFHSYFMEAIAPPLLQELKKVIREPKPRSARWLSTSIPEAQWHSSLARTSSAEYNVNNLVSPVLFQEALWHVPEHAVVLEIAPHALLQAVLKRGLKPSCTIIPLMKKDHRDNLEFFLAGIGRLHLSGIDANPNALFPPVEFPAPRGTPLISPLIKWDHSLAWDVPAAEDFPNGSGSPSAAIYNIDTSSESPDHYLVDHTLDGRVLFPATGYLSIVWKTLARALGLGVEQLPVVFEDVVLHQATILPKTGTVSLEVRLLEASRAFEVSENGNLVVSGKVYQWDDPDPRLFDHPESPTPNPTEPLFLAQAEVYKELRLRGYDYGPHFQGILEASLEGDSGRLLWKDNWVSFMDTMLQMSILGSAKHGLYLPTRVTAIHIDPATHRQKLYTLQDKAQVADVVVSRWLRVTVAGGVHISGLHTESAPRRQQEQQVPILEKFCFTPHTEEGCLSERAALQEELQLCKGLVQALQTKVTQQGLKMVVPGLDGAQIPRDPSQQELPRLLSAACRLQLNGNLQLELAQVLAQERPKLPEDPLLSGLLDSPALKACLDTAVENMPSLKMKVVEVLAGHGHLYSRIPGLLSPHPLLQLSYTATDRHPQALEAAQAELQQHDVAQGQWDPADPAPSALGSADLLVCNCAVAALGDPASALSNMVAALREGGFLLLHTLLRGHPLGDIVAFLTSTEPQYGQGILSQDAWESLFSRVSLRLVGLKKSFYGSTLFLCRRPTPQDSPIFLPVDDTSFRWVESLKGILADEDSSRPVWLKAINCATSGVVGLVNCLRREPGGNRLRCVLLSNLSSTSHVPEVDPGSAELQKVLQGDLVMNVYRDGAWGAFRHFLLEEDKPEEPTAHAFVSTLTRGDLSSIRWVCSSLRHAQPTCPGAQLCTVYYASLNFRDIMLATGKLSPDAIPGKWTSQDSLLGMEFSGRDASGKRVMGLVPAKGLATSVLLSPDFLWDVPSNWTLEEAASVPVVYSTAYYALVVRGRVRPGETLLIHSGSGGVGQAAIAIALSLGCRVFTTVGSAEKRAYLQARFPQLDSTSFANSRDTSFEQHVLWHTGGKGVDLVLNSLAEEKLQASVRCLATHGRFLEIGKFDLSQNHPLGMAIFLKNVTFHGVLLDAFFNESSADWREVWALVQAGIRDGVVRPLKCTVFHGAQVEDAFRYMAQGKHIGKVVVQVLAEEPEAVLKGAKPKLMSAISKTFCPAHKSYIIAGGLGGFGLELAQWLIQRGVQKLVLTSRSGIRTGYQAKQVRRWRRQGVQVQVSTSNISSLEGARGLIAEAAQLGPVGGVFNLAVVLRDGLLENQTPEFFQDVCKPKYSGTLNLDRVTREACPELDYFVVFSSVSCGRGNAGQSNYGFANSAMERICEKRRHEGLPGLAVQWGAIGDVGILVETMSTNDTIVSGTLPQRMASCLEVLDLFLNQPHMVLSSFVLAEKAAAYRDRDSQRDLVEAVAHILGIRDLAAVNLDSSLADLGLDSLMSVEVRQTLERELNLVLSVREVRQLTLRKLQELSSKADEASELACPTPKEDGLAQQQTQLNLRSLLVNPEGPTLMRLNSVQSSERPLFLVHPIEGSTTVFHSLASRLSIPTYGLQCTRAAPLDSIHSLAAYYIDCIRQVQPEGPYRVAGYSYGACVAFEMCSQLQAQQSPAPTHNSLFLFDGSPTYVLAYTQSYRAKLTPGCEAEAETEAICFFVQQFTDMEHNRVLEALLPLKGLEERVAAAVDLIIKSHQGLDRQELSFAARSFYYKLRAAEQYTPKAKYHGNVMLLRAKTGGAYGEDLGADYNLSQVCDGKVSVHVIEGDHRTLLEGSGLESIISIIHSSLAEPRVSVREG
Sequence of DNA dC->dU-editing enzyme APOBEC-3A (P31941 whole entry): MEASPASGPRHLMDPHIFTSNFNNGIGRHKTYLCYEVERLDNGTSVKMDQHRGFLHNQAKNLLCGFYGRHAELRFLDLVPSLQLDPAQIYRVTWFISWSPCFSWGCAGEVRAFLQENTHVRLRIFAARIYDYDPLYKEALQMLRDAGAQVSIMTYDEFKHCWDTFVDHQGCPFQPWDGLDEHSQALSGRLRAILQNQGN
Sequence of Genome polyprotein (P29990 2492-3391 limits assumed): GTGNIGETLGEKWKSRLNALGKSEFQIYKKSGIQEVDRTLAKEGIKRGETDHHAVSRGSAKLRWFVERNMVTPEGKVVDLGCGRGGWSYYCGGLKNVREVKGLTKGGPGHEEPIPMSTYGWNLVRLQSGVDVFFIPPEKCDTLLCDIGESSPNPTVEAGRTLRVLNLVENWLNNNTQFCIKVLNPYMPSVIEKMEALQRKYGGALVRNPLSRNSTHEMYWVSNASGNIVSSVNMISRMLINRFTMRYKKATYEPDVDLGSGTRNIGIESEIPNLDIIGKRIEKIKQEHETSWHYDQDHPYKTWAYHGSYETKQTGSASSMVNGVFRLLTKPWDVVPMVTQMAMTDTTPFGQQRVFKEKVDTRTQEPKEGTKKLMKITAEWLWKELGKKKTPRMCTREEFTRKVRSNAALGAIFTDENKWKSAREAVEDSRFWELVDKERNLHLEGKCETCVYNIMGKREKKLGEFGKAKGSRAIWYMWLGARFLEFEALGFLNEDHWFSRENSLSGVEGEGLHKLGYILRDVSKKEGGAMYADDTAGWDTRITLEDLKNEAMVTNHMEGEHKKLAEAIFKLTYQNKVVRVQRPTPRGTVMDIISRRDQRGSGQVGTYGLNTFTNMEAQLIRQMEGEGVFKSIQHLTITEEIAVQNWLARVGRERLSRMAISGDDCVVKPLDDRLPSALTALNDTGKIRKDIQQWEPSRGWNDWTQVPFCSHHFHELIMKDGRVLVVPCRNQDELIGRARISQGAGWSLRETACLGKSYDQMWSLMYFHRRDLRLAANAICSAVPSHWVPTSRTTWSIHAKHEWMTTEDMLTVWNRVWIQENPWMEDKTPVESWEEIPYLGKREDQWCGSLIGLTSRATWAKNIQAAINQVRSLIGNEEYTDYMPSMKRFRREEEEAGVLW
Sequence of DNA dC->dU-editing enzyme APOBEC-3G (Q9HC16 whole entry): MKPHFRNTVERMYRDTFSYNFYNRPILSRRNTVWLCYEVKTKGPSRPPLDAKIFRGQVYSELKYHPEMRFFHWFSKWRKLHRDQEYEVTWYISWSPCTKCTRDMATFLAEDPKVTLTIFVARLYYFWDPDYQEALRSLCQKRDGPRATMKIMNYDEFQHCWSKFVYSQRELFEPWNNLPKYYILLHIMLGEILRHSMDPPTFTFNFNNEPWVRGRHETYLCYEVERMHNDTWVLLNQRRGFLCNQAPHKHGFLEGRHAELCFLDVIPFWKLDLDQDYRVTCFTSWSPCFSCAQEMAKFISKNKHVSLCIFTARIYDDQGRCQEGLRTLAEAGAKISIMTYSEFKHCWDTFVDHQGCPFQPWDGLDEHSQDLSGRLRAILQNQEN
Sequence of Induced myeloid leukemia cell differentiation protein Mcl-1 (Q07820 whole entry): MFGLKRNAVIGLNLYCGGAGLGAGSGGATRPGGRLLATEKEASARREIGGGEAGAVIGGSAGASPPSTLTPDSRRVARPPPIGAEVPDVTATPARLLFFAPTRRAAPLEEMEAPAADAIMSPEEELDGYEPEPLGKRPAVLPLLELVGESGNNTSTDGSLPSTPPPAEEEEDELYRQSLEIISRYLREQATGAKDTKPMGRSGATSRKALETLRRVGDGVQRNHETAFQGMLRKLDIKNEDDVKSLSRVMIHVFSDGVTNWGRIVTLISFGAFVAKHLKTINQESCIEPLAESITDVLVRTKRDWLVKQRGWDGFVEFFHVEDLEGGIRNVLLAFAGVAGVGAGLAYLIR

Question: How did the IC50 (Genome polyprotein) turn out when `COc1ccc(S(=O)(=O)CC(=O)c2cc3cc(Br)ccc3oc2=O)cc1` was run?
Answer: > 100 µM (active)

Question: What about the IC50 [1] of the same compound?
Answer: 2.11 µM (active)

Question: Which results are given for `COc1ccc(N2C(=O)NC(=O)/C(=C\c3c[nH]c4ccc(Br)cc34)C2=O)c(OC)c1`?
Answer: EC50 [2]: > 300 µM (inconclusive); IC50 [1]: 1.66 µM (active); EC50 [3]: > 300 µM (inconclusive)

Question: What does the source list for `CCN(CC)C(=O)CSc1ncnc2c(-c3cccs3)nsc12`?
Answer: IC50 [4]: 17.8 µM (active); IC50 [5]: 12.9 µM (active); IC50 [6]: 3.16 µM (active); IC50 [7]: 61.2 µM (active); IC50 [8]: 37.6 µM (active)

Question: How did the IC50 (Fatty acid synthase [9]) turn out when `C=CCOc1c(OC)cc(/C=N/Nc2cccc(C(=O)O)c2)c(Br)c1Br` was run?
Answer: 3.82 µM (active)

Question: What about the IC50 (Fatty acid synthase [10]) of the same compound?
Answer: 3.06 µM (active)

Question: And the IC50 (Leucine aminopeptidase)?
Answer: < 1 µM (active)

Question: And the IC50 [11]?
Answer: 5.84 µM (not active)

Question: And the AC50 (Caspase-6)?
Answer: 19.2 µM (active)

Question: And the IC50 [1]?
Answer: 2.92 µM (active)
